One block for each compound: values may come before it. The source made the active and inactive calls. The calls are words filed in the database; no cut-off is given here.
Legend:
[1] = biological target: T1, Cystathionine gamma-lyase (Homo sapiens, UniProt P32929); experiment: Inhibition of human CSE using L-Cys as the substrate by tandem well based HTS assay
[2] = species: Homo sapiens; experiment: Selectivity index, ratio of IC50 for human CBS to IC50 for human DDC
[3] = biological target: T1, Cystathionine gamma-lyase; experiment: Binding affinity to human CSE by ITC analysis
[4] = Binding affinity to H2S assessed as absorbing of released H2S at 200 uM in presence of NaHS as H2S donor
[5] = Binding affinity to H2S assessed as absorbing of released H2S up to 100 uM in presence of NaHS as H2S donor; conditions: dose microM <=100
[6] = species: Homo sapiens; experiment: Selectivity index, ratio of IC50 for human CBS to IC50 for human CSE
[7] = biological target: T1, Cystathionine gamma-lyase; experiment: Inhibition of human CSE using L-Cys as the substrate in presence of 0.01% Triton X-100 by tandem well based HTS assay
[8] = biological target: T1, Cystathionine gamma-lyase; experiment: Inhibition of human CSE using L-Cys as the substrate in presence of 0.025% Triton X-100 by tandem well based HTS assay
[9] = biological target: T1, Cystathionine gamma-lyase; experiment: Non-covalent reversible inhibition of human CSE
[10] = biological target: T1, Cystathionine gamma-lyase; experiment: Competitive inhibition of human CSE using varying levels of L-Cys as substrate and fixed PLP levels
[11] = biological target: T1, Cystathionine gamma-lyase; experiment: Inhibition of human CSE using H-Cys as the substrate by LC/MS/MS-based assay
[12] = biological target: T1, Cystathionine gamma-lyase; experiment: Inhibition of human CSE using H-Cys as the substrate by tandem well based HTS assay

T1 sequence (P32929 whole entry): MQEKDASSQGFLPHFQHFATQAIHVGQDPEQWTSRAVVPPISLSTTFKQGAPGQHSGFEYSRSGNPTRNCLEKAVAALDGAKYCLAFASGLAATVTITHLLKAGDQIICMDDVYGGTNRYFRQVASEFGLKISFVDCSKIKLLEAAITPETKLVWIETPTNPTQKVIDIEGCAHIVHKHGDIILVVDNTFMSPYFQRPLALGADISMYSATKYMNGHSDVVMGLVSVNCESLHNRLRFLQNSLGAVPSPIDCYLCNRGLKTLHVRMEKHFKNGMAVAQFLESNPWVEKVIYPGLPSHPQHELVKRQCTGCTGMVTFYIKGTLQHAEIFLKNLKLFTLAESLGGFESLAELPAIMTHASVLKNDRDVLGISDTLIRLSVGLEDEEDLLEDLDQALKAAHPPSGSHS

SMILES: CC1=C/C(=C(\c2cc(C)c(O)c(C(=O)O)c2)c2c(Cl)cccc2Cl)C=C(C(=O)O)C1=O
IC50 [1]: 155 µM

SMILES: CC1=CC(=C(c2cc(C)c(O)c(C(=O)O)c2)c2cc(C)c(O)c(C(=O)O)c2)C=C(C(=O)O)C1=O
IC50 [1]: 59.9 µM

SMILES: O=C1C=C/C(=N/C2C(=O)c3ccccc3C(=O)C2Cl)C=C1Cl (stereo not drawn)
IC50 [1]: < 50 µM

SMILES: O=[N+]([O-])c1ccc(Sc2cccc[n+]2[O-])c2nonc12
IC50 [1]: < 50 µM

Now from value to compound:

IC50 [1]: < 50 µM
SMILES: Cc1nc2c(N)nc(N)nc2nc1O

Ratio IC50 [2]: 32
Kd [3]: 3.8 µM
Activity [4]: 20%
Activity [5]: inactive
Ratio IC50 [6]: 161
inhibition [7]: Active
IC50 [1]: 6.2 µM
inhibition [8]: Active
IC50 [9]: 6.2 µM
Ki [10]: 4.9 µM
IC50 [11]: 13.5 µM
IC50 [12]: 7.4 µM
SMILES: COc1cccc2c1C(=O)C1=C(C[C@H](CC(=O)O)O[C@H]1C)C2=O

IC50 [1]: < 50 µM
SMILES: Nc1ccc(Cc2ccc(NC3C(=O)c4ccccc4C(=O)C3Cl)cc2)cc1 (stereo not drawn)

From ChEMBL document CHEMBL4673222, “Discovery of a Bioactive Inhibitor with a New Scaffold for Cystathionine γ-Lyase” (J Med Chem, 2019)
